Source: patent US10925858B2, “S-nitrosoglutathione (GSNO) and GSNO reductase inhibitors for use in therapy” (MUSC FOUNDATION FOR RESEARCH DEVELOPMENT, priority 2017, dated 2021)

Tests used:
3-nitrotyrosine [1] = assay: Western analysis of 3-nitrotyrosine in rat brains with TBI; assay type: in vivo, Sprague Dawley rats; details: 24 hr after TBI, traumatic penumbra; GSNO 0.05 mg/kg i.v. or FeTPPS 3 mg/kg i.v.
Description: Western immunoblot analysis was performed by standard method using 50 μg of cell lysates. Following the SDS-PAGE electrophoresis, proteins were transferred from the gel onto the Polyvinylidene fluoride membrane (GE Healthcare Life Sciences, Marlborough, Mass.). Membranes were blocked with non-fat dry milk (Santa Cruz Biotechnology) or I-Block™ (ThermoFisher Scientific, Waltham, Mass.) for detection of phospho-proteins and incubated with primary antibodies, such as MBP (Santa Cruz Biotech Cat #: sc13914; RRID: AB_648798), phospho-(Ser^19) MLC (Abeam, Cat #: ab2480; RRID: AB_303094), MLC (Abeam, Cat #: ab79935; RRID:AB_1952220), P-actin (Santa Cruz Biotechnology, Cat #: sc-47778; RRID:AB_2714189), phospho-eNOS (Ser^1177) (Cell Signaling, Cat #: 9571; RRID: AB_329837, Danvers, Mass.), eNOS (Cell Signaling, Cat #: 32027), RhoA (Santa Cruz Biotechnology; Cat #: sc418; RRID: AB_628218) or 3-nitrotyrosine (Abeam, Cat #: ab61392; RRID: AB_942087). […]
All animals used in this study received humane care in compliance with the Medical University of South Carolina's (MUSC) guidance and the National Research Council's criteria for humane care. […] The group size was determined by power analysis based on our previous data (Khan et al., 2016b; Khan et al., 2009). […]

3-nitrotyrosine [2] = assay: Nitrotyrosine levels in spinal cords of EAE mice, Western; assay type: in vivo, C57BL/6J mice; details: day 24 post-immunization; GSNO 1 mg/kg/day or FeTPPS 30 mg/kg/day i.p.
Description: (§1) Western immunoblot analysis was performed by standard method using 50 μg of cell lysates. Following the SDS-PAGE electrophoresis, proteins were transferred from the gel onto the Polyvinylidene fluoride membrane (GE Healthcare Life Sciences, Marlborough, Mass.). […]
(§2) EAE was induced as described previously (Nath et al., 2009). […] The group size was determined by power analysis based on our previous data (Nadi et al., 2009). […] Clinical signs of EAE were scored in animal facility in a blinded fashion to experimenter between 2 and 4 pm daily by examiners blinded to experimental treatments using the following scale: 0=no clinical signs of disease; 1=limp tail or waddling gait with tail tonicity; 2=waddling gait with limp tail (ataxia); 2.5=ataxia with partial limb paralysis; 3=full paralysis of one limb; 3.5=full paralysis of one limb with partial paralysis of second limb; 4=full paralysis of two limbs; 4.5=moribund stage; 5=death. […]

mononuclear cells = assay: H&E staining, peripheral mononuclear cell infiltration in EAE mice; assay type: in vivo, C57BL/6J mice; details: GSNO 1 mg/kg/day or FeTPPS 30 mg/kg/day i.p.
Description: EAE was induced as described previously (Nath et al., 2009). Animal procedures were approved by the institutional animal care and use committee of MUSC (AR #1644). Briefly, female C57BL/6J mice of 8-12 weeks of age weighing 18-22 g (The Jackson Laboratory, Bar Harbor, Me., USA) were randomly divided into four groups: 1) EAE animals treated with vehicle (EAE; n=8), 2) EAE with GSNO (1 mg/kg body weight per day; i.p.) treatment (EAE+GSNO; n=12), 3) EAE with FeTPPS (30 mg/kg body weight per day; i.p.) treatment (EAE+FeTPPS; n=8), 4) control with vehicle (Ctrl; n=8). The group size was determined by power analysis based on our previous data (Nadi et al., 2009). Then, the mice were immunized subcutaneously in the flank regions with MOG35-55 peptide (MOG; 200 ug; Peptide International) emulsified (1:1) in 100 ul complete Freund's adjuvant (CFA) CHI day 0 and day 7. […] Clinical signs of EAE were scored in animal facility in a blinded fashion to experimenter between 2 and 4 pm daily by examiners blinded to experimental treatments using the following scale: 0=no clinical signs of disease; 1=limp tail or waddling gait with tail tonicity; 2=waddling gait with limp tail (ataxia); 2.5=ataxia with partial limb paralysis; 3=full paralysis of one limb; 3.5=full paralysis of one limb with partial paralysis of second limb; 4=full paralysis of two limbs; 4.5=moribund stage; 5=death. […]

myelin = assay: Spinal cord demyelination (MBP staining and Western) in EAE mice; assay type: in vivo, C57BL/6J mice; details: GSNO 1 mg/kg/day or FeTPPS 30 mg/kg/day i.p.
Description: as §1, §2
Animals were anesthetized and fixed with cardiac perfusion of 4% paraformaldehyde (Nath et al., 2004). […] To assess the status of myelin, the sections were stained with antibody specific to MBP and detected with secondary antibody conjugated with immunofluorescent analysis. […]

| Compound | brain levels of 3-nitrotyrosine (3-nitrotyrosine [1]) | EAE-induced nitrotyrosine levels in spinal cords (3-nitrotyrosine [2]) | extravasation of peripheral mononuclear cells into the CNS (mononuclear cells) | protection of myelin in the spinal cord (myelin) |
| --- | --- | --- | --- | --- |
| Cl.O=S(=O)([O-])c1ccc(-c2c3nc(c(-c4ccc(S(=O)(=O)O)cc4)c4ccc([nH]4)c(-c4ccc(S(=O)(=O)O)cc4)c4nc(c(-c5ccc(S(=O)(=O)O)cc5)c5ccc2[nH]5)C=C4)C=C3)cc1.[Fe] [FeTPPS, 5,10,15,20-Tetrakis(4-sulfonatophenyl)porphyrinato Iron (III), Cl, reference compound] | reduced | significantly decreased | significantly decreased | protected myelin |
| N[C@@H](CCC(=O)N[C@@H](CSN=O)C(=O)NCC(=O)O)C(=O)O [GSNO, S-nitrosoglutathione] | reduced | significantly decreased | significantly decreased | protected myelin |
